Reference: PMC8335727 (Inorganic Chemistry, 2021)

Legend:
[1] = log D7.4 by shake-flask method, n-octanol/buffered aqueous solution; type: physicochemical; conditions: partitioning, n-octanol/water, pH 7.4, read-out: log D7.4 (proligand)
Procedure: Besides pKa values, lipophilicity is also an important pharmacological property of a drug, as it strongly influences the ability of the compound to pass through biological membranes. Therefore, distribution coefficients (log D7.4) were determined using the shake-flask method in an n-octanol-buffered aqueous solution at pH 7.4 (Table 1). The log D7.4 values indicate the moderate lipophilic character of the proligands. The substitution at the end nitrogen atom of the thosemicarbazide moiety and the presence of a methyl group at the Schiff base bond induce a somewhat higher lipophilicity. The presence of the phenolic moiety undoubtedly increases the log D7.4 values compared to those of FTSC (+0.73),[67]
The time-dependence of UV–vis absorption spectra was monitored for proligands HL2 at pH 7.4, 1.5 and 10.0 in 30% (v/v) DMSO/H2O, and for HL1 and HL3 at pH 7.4.
The redox reaction of the copper(II) complexes (25 µM) with GSH (1250 µM) was studied at 7.40 (50 mM HEPES buffer with 0.1 M KCl) and at 25.0 ± 0.1 °C on Hewlett Packard 8452A diode array spectrophotometer using a special, tightly closed tandem cuvette (Hellma Tandem Cell, 238-QS) as described previously.6,7 Calculation of the observed rate constants (kobs) of the redox reaction was performed by using a reported approach.6,7
Distribution coefficients (D7.4) values were determined by the traditional shake-flask method in n-octanol/buffered aqueous solution at pH 7.40 (50 mM HEPES buffer at 25.0 ± 0.2 °C as described previously in our previous work.8
2.4. Spectroelectrochemical studies
Cyclic voltammetry experiments with 0.5 mM solutions of Cu(II) complexes and corresponding ligands in 0.1 M n-Bu4NPF6 in both DMSO and methanol were performed under argon atmosphere using a three-electrode arrangement with glassy carbon 1 mm disc working electrode (from Ionode, Australia), platinum wire as counter electrode, and silver wire as pseudo -reference electrode. As a supporting e lectrolyte, 0.1 M n-Bu4NPF6 was used in DMSO (SeccoSolv max.
0.025% H2O, Merck) and 0.1 M LiClO4 (≥95.0%, Merck) in methanol. […]

Colo205 = assay: MTT cytotoxicity assay, Colo205; type: cell-based; conditions: Homo sapiens, COLO 205, 72 h of exposure
Procedure: (§1) The in vitro cytotoxicity of the TSCs HL^1–HL^3, copper(II) complexes Cu(HL^1)Cl2, [Cu(L^2)Cl], and Cu(HL^3)Cl2, and oxidized TSCs HL^1a′, HL^1a″, and HL^2c′·CH3COOH was tested in the doxorubicin-sensitive Colo205 and the multidrug-resistant Colo320 human colonic adenocarcinoma cell lines as well as in normal human embryonal lung fibroblast cells (MRC-5) by the colorimetric MTT assay. […]
(§2) 2.5. In vitro cell studies
(§3) 2.5.1. Cell lines and culture conditions
(§4) All cell culture reagents were obtained from Sigma-Aldrich and plastic ware from Sarstedt
(§5) (Germany). Doxorubicin-sensitive human colonic Colo 205 and multidrug resistant
(§6) Colo 320/MDR-LRP adenocarcinoma cell lines were purchased from LGC Promochem,
(§7) Teddington, UK. The cells were cultured in Roswell Park Memorial Institute (RPMI) 1640
(§8) medium supplemented with 10% heat-inactivated fetal bovine serum, 2 mM L-glutamine, 1 mM
(§9) Na-pyruvate and 100 mM Hepes. The cell lines were incubated at 37°C, in a 5% CO2, 95% air
(§10) MRC-5 human embryonal lung fibroblast cell line (ATCC CCL-171) was purchased from LGC
(§11) Promochem, Teddington, UK. The cell line was cultured in Eagle’s Minimal Essential Medi um
(§12) (EMEM, containing 4.5 g/L glucose) supplemented with a non-essential amino acid mixture, a
(§13) selection of vitamins and 10% heat-inactivated fetal bovine serum. The cells were incubated at
(§14) 37°C, in a 5% CO2, 95% air atmosphere. All cell lines were detached with Trypsin-Versene
(§15) (EDTA) solution for 5 min at 37 °C.
(§16) The tested compounds were dissolved in DMSO using 10 mM concentration. Then stock solutions
(§17) were diluted in complete culture medium in 96-well microtiter plates, and two-fold serial dilutions
(§18) of compounds were prepared in 100 µL of RPMI 1640, horizontally. The semi-adherent colonic
(§19) adenocarcinoma cells were treated with Trypsin -Versene (EDTA) solution. They were adjusted to
(§20) a density of 1×10^4 cells in 100 µL of RPMI 1640 medium, and were added to each well, with the
(§21) exception of the medium control wells. The final volume of the wells containing compounds and
(§22) cells was 200 µL. The culture were incubated at 37 °C for 72 h; at the end of the incubation period,
(§23) 20 µL of MTT solution (from a stock solution of 5 mg/mL) were added to each well. After
(§24) incubation at 37 °C for 4 h, 100 µL of SDS solution (10% in 0.01 M HCI) were added to each well
(§25) and the plates were further incubated at 37 °C overnight. The cell growth was determined using
(§26) both methods by measuring the optical density (OD) at 450 nm (ref. 620 nm) with a Multiscan EX
(§27) ELISA reader. Inhibition of the cell growth (expressed as IC 50: inhibitory concentration that
(§28) reduces by 50% the growth of the cells exposed to the tested compounds) was determined from
(§29) the sigmoid curve where 100 – ((ODsample ‒ ODmedium control)/(ODcell control ‒ ODmedium control)) × 100
(§30) values were plotted against the logarithm of compound concentrations. […]
(§31) 0.76 tyrosyl radical/polypeptide. Samples containing 20 µM mR2 in 50 mM HEPES buffer, pH
(§32) 7.50/100 mM NaCl, and 20 µM respective compound in 1% (v/v) DMSO/H2O, and 2 mM

Colo320 = assay: MTT cytotoxicity assay, Colo320; type: cell-based; conditions: Homo sapiens, COLO 320, 72 h of exposure
Procedure: as §1, §2, §3, §4, §5, §6, §7, §8, §9, §10, §11, §12, §13, §14, §15, §16, §17, §18, §19, §20, §21, §22, §23, §24, §25, §26, §27, §28, §29, §30, §31, §32

MRC-5 = assay: MTT cytotoxicity assay, MRC-5; type: cell-based; conditions: Homo sapiens, MRC5, 72 h of exposure
Procedure: as §2, §3
All cell culture reagents were obtained from Sigma-Aldrich and plastic ware from Sarstedt […]
as §10, §11, §12, §13, §14, §15, §16, §17, §18, §19, §20, §21, §22, §23, §24, §25, §26, §27, §28, §29, §30

SMILES	logD [1]	IC50 (Colo205) [µM]	IC50 (Colo320) [µM]	IC50 (MRC-5) [µM]
CC(=NNC(=S)Nc1cc(C)c(O)c(C)c1)c1ccccn1 [HL^2, 2-Acetylpyridine 4-(4-hydroxy-3,5-dimethylphenyl)thiosemicarbazone]	2.1	> 100	> 100	> 100
Cc1cc(NC(=S)NN=Cc2ncccc2N)cc(C)c1O [HL^3, 3-Amino-2-formylpyridine 4-(4-hydroxy-3,5-dimethylphenyl)thiosemicarbazone]	1.67	48.2 ± 6.8	> 100	> 100
Cc1cc(NC(=S)NN=Cc2ccccn2)cc(C)c1O [HL^1, 2-Formylpyridine 4-(4-hydroxy-3,5-dimethylphenyl)thiosemicarbazone]	1.3	> 100	6.32 ± 0.49	> 100
